For 7 compounds, TGI results are on record in PubChem BioAssay (NCI).

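These data come from cells grown in 96-well plates and exposed to compound for 48 hours at five concentrations. Definition used: TGI = concentration required for complete inhibition of growth.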 Some results are limits rather than exact numbers.

Some test systems named below: CCRF-CEM leukemia; SF-295 CNS; KM12 colon; HCT-15 colon; A498 renal; SF-268 CNS; TK-10 renal; CAKI-1 renal; MDA-MB-231 breast; NCI/ADR-RES ovarian; HL-60(TB) leukemia; SF-539 CNS; SK-MEL-2 melanoma; SK-OV-3 ovarian; NCI-H226 lung; 786-0 renal; A549 NSCLC; SK-MEL-28 melanoma; BT-549 breast; PC-3 prostate.
Common to all, as to assay: DTP human tumour cell line panel, 48 h

Take `COC1=NC(NC2OCC(O)C(O)C2O)=C(NC(C)=O)CN1C` (centres undefined): the TGI with CCRF-CEM leukemia, with SF-295 CNS, in the assay with KM12 colon, with HCT-15 colon, with A498 renal and with SF-268 CNS was greater than 100 µM in each case. In addition, the TGI with TK-10 renal, in the assay on CAKI-1 renal, with MDA-MB-231 breast, with NCI/ADR-RES ovarian, in the assay on HL-60(TB) leukemia and with SF-539 CNS was greater than 100 µM in each case. For the same compound, the TGI in the assay on SK-MEL-2 melanoma, in the assay with SK-OV-3 ovarian, with NCI-H226 lung, in the assay with 786-0 renal, in the assay with A549 NSCLC and in the assay on SK-MEL-28 melanoma was greater than 100 µM throughout. In the assay with BT-549 breast, this compound registered a TGI greater than 100 µM.
Regarding `CN(/N=C/c1cccs1)c1ccc(Cl)cc1[N+](=O)[O-]`, the concentration for total growth inhibition (TGI) in the assay on CCRF-CEM leukemia is 73.2 µM; in the assay with PC-3 prostate, greater than 100 µM; with SF-295 CNS, greater than 100 µM; in the assay with KM12 colon it was greater than 100 µM; in the assay with HCT-15 colon, greater than 100 µM; in the assay on SF-268 CNS, greater than 100 µM. The TGI with TK-10 renal was greater than 100 µM; with CAKI-1 renal it was greater than 100 µM; in the assay with MDA-MB-231 breast, greater than 100 µM; in the assay with NCI/ADR-RES ovarian it was 66.7 µM; with HL-60(TB) leukemia it was 54.1 µM; with SF-539 CNS, 75 µM. Besides, the TGI in the assay on SK-OV-3 ovarian was greater than 100 µM; in the assay with NCI-H226 lung, 97.3 µM; in the assay with 786-0 renal, greater than 100 µM; in the assay on A549 NSCLC it was greater than 100 µM; with SK-MEL-28 melanoma it was greater than 100 µM; in the assay on BT-549 breast, greater than 100 µM.
With `CC1(C)C=C(/C=N/Nc2ccc([N+](=O)[O-])cc2)C(C#N)=C(O)C1(C#N)C#N`, the TGI with CCRF-CEM leukemia, in the assay with PC-3 prostate, in the assay on SF-295 CNS, with KM12 colon, in the assay on HCT-15 colon and in the assay on SF-268 CNS was greater than 100 µM throughout. Also, the TGI in the assay with TK-10 renal, in the assay with CAKI-1 renal, in the assay on MDA-MB-231 breast, in the assay with NCI/ADR-RES ovarian, in the assay on HL-60(TB) leukemia and with SF-539 CNS was greater than 100 µM each time. Also, the TGI with SK-MEL-2 melanoma, with SK-OV-3 ovarian, in the assay with NCI-H226 lung, in the assay on 786-0 renal, in the assay with A549 NSCLC and in the assay on SK-MEL-28 melanoma was greater than 100 µM throughout. In addition, the TGI in the assay on BT-549 breast is greater than 100 µM.
In the case of `NNC(=O)c1ccccc1Nc1ccccc1C(=O)NN`, the TGI in the assay with CCRF-CEM leukemia, in the assay on PC-3 prostate, in the assay on SF-295 CNS, in the assay with KM12 colon, in the assay on HCT-15 colon and in the assay on SF-268 CNS was greater than 100 µM each time. For the same compound, the TGI in the assay with TK-10 renal, in the assay on CAKI-1 renal, in the assay with MDA-MB-231 breast, in the assay on NCI/ADR-RES ovarian, with HL-60(TB) leukemia and in the assay with SF-539 CNS was greater than 100 µM throughout. For the same compound, the TGI in the assay with SK-MEL-2 melanoma, in the assay on SK-OV-3 ovarian, in the assay on NCI-H226 lung, with 786-0 renal, in the assay with A549 NSCLC and in the assay on SK-MEL-28 melanoma was greater than 100 µM each time. In addition, the TGI in the assay with BT-549 breast is greater than 100 µM.
Regarding `CCOC(=O)n1[nH]c(=O)n(-c2ccccc2)c1=O`, the TGI in the assay on CCRF-CEM leukemia, with PC-3 prostate, in the assay on SF-295 CNS, with KM12 colon, in the assay on HCT-15 colon and in the assay with SF-268 CNS was greater than 100 µM throughout. In addition, the TGI with TK-10 renal, with CAKI-1 renal, in the assay on MDA-MB-231 breast, in the assay on NCI/ADR-RES ovarian, with HL-60(TB) leukemia and with SK-MEL-2 melanoma was greater than 100 µM throughout. Also, the TGI with SK-OV-3 ovarian, in the assay with NCI-H226 lung, in the assay with 786-0 renal, with A549 NSCLC, in the assay on SK-MEL-28 melanoma and with BT-549 breast was greater than 100 µM in each case.
As for `CC(=O)OCC1OC(n2c(C)c(N=Nc3ccccc3)c(C)c(C#N)c2=S)C(OC(C)=O)C(OC(C)=O)C1OC(C)=O` (centres undefined), the TGI in the assay on CCRF-CEM leukemia was greater than 100 µM; in the assay on PC-3 prostate, greater than 100 µM; in the assay with SF-295 CNS it was 44.1 µM; with KM12 colon, greater than 100 µM; with SF-268 CNS it was greater than 100 µM; with TK-10 renal, 81.8 µM. For the same compound, the TGI in the assay with CAKI-1 renal was greater than 100 µM; with MDA-MB-231 breast, 62.3 µM; with NCI/ADR-RES ovarian, greater than 100 µM; in the assay on HL-60(TB) leukemia it was greater than 100 µM; with SF-539 CNS, greater than 100 µM; with SK-MEL-2 melanoma, 62.2 µM. Also, the TGI was greater than 100 µM with SK-OV-3 ovarian; 22.7 µM in the assay on 786-0 renal; greater than 100 µM in the assay on A549 NSCLC; greater than 100 µM in the assay on SK-MEL-28 melanoma; greater than 100 µM in the assay on BT-549 breast.
Take `Nc1ccccc1N/C(=C\C(=O)C(Cl)(Cl)Cl)c1ccccc1`: the TGI in the assay with CCRF-CEM leukemia is greater than 100 µM; with PC-3 prostate, 68.8 µM; in the assay with SF-295 CNS, greater than 100 µM; in the assay on KM12 colon, greater than 100 µM; with HCT-15 colon, 80.4 µM; in the assay on SF-268 CNS it was 70.4 µM. In addition, the TGI was greater than 100 µM in the assay with TK-10 renal; greater than 100 µM with CAKI-1 renal; 36.2 µM in the assay on MDA-MB-231 breast; greater than 100 µM in the assay on NCI/ADR-RES ovarian; 55.3 µM in the assay with HL-60(TB) leukemia; 36.1 µM in the assay on SF-539 CNS. For the same compound, the TGI was 28.6 µM in the assay with SK-MEL-2 melanoma; greater than 100 µM in the assay with SK-OV-3 ovarian; greater than 100 µM in the assay on NCI-H226 lung; 54.3 µM in the assay on 786-0 renal; greater than 100 µM in the assay with A549 NSCLC; greater than 100 µM with SK-MEL-28 melanoma. In addition, the TGI in the assay with BT-549 breast turned out to be 91.6 µM.
